IC50, CC50 and EC50 data for 6 molecules are collected here from ChEMBL document CHEMBL5512597, “Triazole hybrid compounds: A new frontier in malaria treatment” (Eur J Med Chem, 2023).

The structures appear in SMILES notation. Values after ≈ are worked out from the molar mass of the structure shown.

In series [1] the test system is Plasmodium falciparum. Nature of the series: Antimalarial activity against Plasmodium falciparum 3D7 by SYBR green dye based analysis. The class given is functional, organism-based.
For series [2], the system named is Plasmodium falciparum. Nature of the series: Antiplasmodial activity against CQ-sensitive Plasmodium falciparum NF54 at asexual erythrocyte stage by LDH assay. Format: functional, organism-based.
Series [3] concerns Plasmodium falciparum. Description: Antiplasmodial activity against CQ-resistant Plasmodium falciparum K1 at asexual erythrocyte stage by LDH assay. The class given is functional, organism-based.
Series [4] concerns Plasmodium falciparum. Description: Antimalarial activity against Plasmodium falciparum NF54 infected in human erythrocytes assessed as inhibition of parasitemia by giemsa staining based analysis. Format: functional, organism-based. As to conditions: NF54, Erythrocyte.
A short description of series [5]: Cytotoxicity against human erythrocytes. Format: toxicity, cell-based, Erythrocyte.
Series [6] deals with Plasmodium falciparum. Description: Antimalarial activity against Plasmodium falciparum 3D7 infected in A+ human erythrocytes assessed as reduction in parasite growth incubated for 72 hrs by SYBR Green I staining based analysis. The class given is functional, organism-based. As to conditions: 3D7, Erythrocyte.
The nature of series [7]: Cytotoxicity against African green monkey Vero cells after 72 hrs by MTT assay. Format: toxicity, cell-based. The following applies: chlorocebus sabaeus.
The test system of series [8] is Plasmodium falciparum. Description: Antimalarial activity against Plasmodium falciparum Dd2 infected in A+ human erythrocytes assessed as reduction in parasite growth incubated for 72 hrs by SYBR Green I staining based analysis. Format: functional, organism-based. The following applies: Dd2, Erythrocyte.
A further series has as its system Plasmodium knowlesi. Description: Antimalarial activity against Plasmodium knowlesi A1H1. The class given is functional, organism-based.
For series [9], the system named is Plasmodium falciparum. Nature of the series: Antimalarial activity against CQ-sensitive Plasmodium falciparum 3D7 at trophozoite stage infected in O+ human erythrocytes assessed as parasite growth inhibition in presence of 2.97 uM thiamine by SYBR staining based analysis. The class given is functional, organism-based. As to conditions: 3D7, Erythrocyte.
In series [10] the test system is Plasmodium falciparum. Nature of the series: Antimalarial activity against CQ-sensitive Plasmodium falciparum 3D7 at trophozoite stage infected in O+ human erythrocytes assessed as parasite growth inhibition in presence of 297 uM thiamine by SYBR staining based analysis. The class given is functional, organism-based. The following applies: 3D7, Erythrocyte.
Series [11] relates to Plasmodium falciparum. Nature of the series: Antiplasmodial activity against Plasmodium falciparum 3D7 at asexual erythrocytic stage infected in human erythrocytes assessed as parasite growth inhibition incubated for 42 hrs by [3H]-hypoxanthine incorporation assay. The class given is functional, organism-based. The following applies: 3D7, Erythrocyte.
Series [12] is described as follows: Cytotoxicity against human Huh-7 cells by MTT assay. The class given is toxicity, cell-based. (In general: Tetrazolium assays rely on reduction of a dye to a coloured formazan, in cell work by metabolically active cells.)

By IC50 is commonly meant the concentration that inhibits the measured activity by half. Molecule `CCOC(=O)c1n[nH]c(-c2ccccn2)n1` showed an IC50 in the series with Plasmodium falciparum [1] of 176 µM.
Consider `Clc1ccc2c(NCCn3cc(-c4ccnc(-c5ccccn5)c4)nn3)ccnc2c1`, for which the IC50 in the series on Plasmodium falciparum [2] was 0.098 µM; with Plasmodium falciparum [3], 0.275 µM.
Consider `Clc1ccc2c(Nc3nc[nH]n3)cccc2c1`, for which the 50% inhibitory concentration (IC50) in the series with Plasmodium falciparum [4] was 42.6 µM.
The term CC50 denotes the concentration at which the toxic effect on the cells reaches its halfway point. As usually defined, the EC50 is the concentration that produces a half-maximal response. The molecule `CCN(CC)CCCC(C)Nc1ccnc2cc(Cl)ccc12` (stereo not drawn) [CHLOROQUINE] registered a CC50 in series [5] above 100 µg/mL. Also, the EC50 with Plasmodium falciparum [6] came to 0.0127 µM; in the series on Plasmodium falciparum [8], 0.166 µM; in the series on Plasmodium knowlesi it was 0.21 µM. Besides, in [7], the CC50 at 72 h worked out at 112 µM.
`Cc1ncc(Cn2cc(CCOC(=O)c3cccc(Cl)c3)nn2)c(N)n1`: the IC50 was 62 µM in the series with Plasmodium falciparum [9] and 79 µM in the series on Plasmodium falciparum [10].
Turning to `Cc1cc(C)nc(NS(=O)(=O)c2ccc(-n3cc(COc4ccc([N+](=O)[O-])cc4)nn3)cc2)n1`, in the series on Plasmodium falciparum [11], the IC50 came to 6.2 µg/mL (≈ 12.9 µM). In series [12], this molecule displayed a CC50 of 7.5 µg/mL (≈ 15.6 µM).
